According to US9163256B2, “Mutant receptors and their use in a nuclear receptor-based inducible gene expression system” (priority 2004, dated 2015):
Read-outs that look alike come from different tables or passages of the source.

Key:
[1] = molecular target: CfEcR-DEF mutant N119F/V96T (Choristoneura fumiferana, UniProt O77255, N402F/V379T); test: cell-based
Method: (§1) This construct was prepared in the same way as in switch 1.1 above except wild-type CfEcR-DEF was replaced with mutant CfEcR-DEF comprising a ligand binding domain comprising a substitution mutation selected from Table 1 below.
(§2) DNAs were transfected into mouse NIH3T3 cells (ATCC) as follows. Standard methods for culture and maintenance of the cells were followed. Cells were harvested and plated 96-well plates at 2,500 cells per well, in 50 μL of growth medium containing 10% fetal bovine serum (FBS). Twenty-four hours later, the cells were treated with 35 μL of serum-free growth medium containing either dimethylsulfoxide (DMSO; control) or a DMSO solution of ligand. The cells were then transfected using Superfect (Qiagen Inc.) transfection reagent. For each well, 0.625 μL of Superfect was mixed with 14.2 μL of serum-free growth medium. 0.16 μg of reporter construct and 0.04 μg of each receptor construct were added to the transfection reagent mix. The contents of the transfection mix were mixed in a vortex mixer and let stand at room temperature for 30 minutes. At the end of incubation, 15 μL of transfection mix was added to the cells. The cells were maintained at 37° C. and 5% CO2 for 48 hours in 5% FBS.
(§3) Reporter Assays: Cells were harvested 40 hours after adding ligands. 125 μL of passive lysis buffer (part of Dual-Luciferase reporter assay system from Promega Corporation) were added to each well of the […] plate. The plates were placed on a rotary shaker for 15 minutes. Twenty μL of lysate were assayed. Luciferase activity was measured using Dual-Luciferase reporter assay system from Promega Corporation following the manufacturer's instructions. Fold induction (FI) activities were calculated by dividing relative light units (“RLU”) in ligand treated cells with RLU in DMSO treated cells (untreated control).

CfEcR-DEF mutant V96L = CfEcR-DEF mutant V96L (Choristoneura fumiferana, UniProt O77255, V379L); test: cell-based
Method: as §1, §2, §3

CfEcR-DEF mutant F109W = CfEcR-DEF mutant F109W (Choristoneura fumiferana, UniProt O77255, F392W); test: cell-based
Method: as §1, §2, §3

CfEcR-DEF mutant V96W = CfEcR-DEF mutant V96W (Choristoneura fumiferana, UniProt O77255, V379W); test: cell-based
Method: as §1, §2, §3

CfEcR-DEF mutant L132V = CfEcR-DEF mutant L132V (Choristoneura fumiferana, UniProt O77255, L415V); test: cell-based
Method: as §1, §2, §3

CfEcR-DEF mutant I51L = CfEcR-DEF mutant I51L (Choristoneura fumiferana, UniProt O77255, I334L); test: cell-based
Sequence of CfEcR-DEF mutant I51L (O77255 entry or part of it I334L): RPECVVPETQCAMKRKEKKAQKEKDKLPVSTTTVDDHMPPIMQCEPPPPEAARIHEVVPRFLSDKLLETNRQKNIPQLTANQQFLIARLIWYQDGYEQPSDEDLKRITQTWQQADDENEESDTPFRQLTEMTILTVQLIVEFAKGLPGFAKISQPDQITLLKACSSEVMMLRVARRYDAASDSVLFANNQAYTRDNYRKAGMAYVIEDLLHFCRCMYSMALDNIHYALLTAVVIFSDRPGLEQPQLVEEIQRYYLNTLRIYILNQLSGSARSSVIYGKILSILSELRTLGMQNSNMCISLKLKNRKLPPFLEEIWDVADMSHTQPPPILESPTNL
Sequence of CfEcR-DEF mutant I51L (P28702 299-449, further chain): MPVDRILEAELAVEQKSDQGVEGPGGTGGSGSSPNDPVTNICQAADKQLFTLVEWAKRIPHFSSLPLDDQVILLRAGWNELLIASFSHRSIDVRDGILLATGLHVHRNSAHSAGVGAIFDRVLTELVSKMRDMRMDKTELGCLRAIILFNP
Method: as §1, §2, §3

[2] = molecular target: CfEcR-DEF mutant V107I/Y127E/A110P (Choristoneura fumiferana, UniProt O77255, A393P/V390I/Y410E); test: cell-based
Sequence of CfEcR-DEF mutant V107I/Y127E/A110P (P28702 299-449, stated change not applied): as the sequence (P28702 299-449, further chain) above
Sequence of CfEcR-DEF mutant V107I/Y127E/A110P (O77255 entry or part of it V390I/A393P/Y410E): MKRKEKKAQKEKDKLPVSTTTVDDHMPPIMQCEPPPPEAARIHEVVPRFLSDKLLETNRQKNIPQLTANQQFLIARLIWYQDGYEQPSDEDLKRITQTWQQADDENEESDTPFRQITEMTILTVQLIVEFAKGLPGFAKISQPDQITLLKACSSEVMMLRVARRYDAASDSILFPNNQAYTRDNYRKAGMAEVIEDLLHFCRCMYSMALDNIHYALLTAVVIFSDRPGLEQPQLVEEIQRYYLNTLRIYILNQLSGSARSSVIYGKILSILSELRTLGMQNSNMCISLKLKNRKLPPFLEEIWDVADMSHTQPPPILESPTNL
Method: as §1, §2, §3

CfEcR-DEF mutant M125R = CfEcR-DEF mutant M125R (Choristoneura fumiferana, UniProt O77255, M408R); test: cell-based
Method: as §1, §2, §3

CfEcR-DEF mutant W238Y = CfEcR-DEF mutant W238Y (Choristoneura fumiferana, UniProt O77255, W521Y); test: cell-based
Method: as §1, §2, §3

CfEcR-DEF mutant F48L = CfEcR-DEF mutant F48L (Choristoneura fumiferana, UniProt O77255, F331L); test: cell-based
Sequence of CfEcR-DEF mutant F48L (P28702 299-449): as the sequence (P28702 299-449, further chain) above
Sequence of CfEcR-DEF mutant F48L (O77255 entry or part of it F331L): as the sequence (O77255 entry or part of it V390I/A393P/Y410E) above, with F113L, I172V, P175A, E192Y counted along it
Method: as §1, §2, §3

CfEcR-DEF mutant M125P = CfEcR-DEF mutant M125P (Choristoneura fumiferana, UniProt O77255, M408P); test: cell-based
Method: as §1, §2, §3

CfEcR-DEF mutant L234M = CfEcR-DEF mutant L234M (Choristoneura fumiferana, UniProt O77255, L517M); test: cell-based
Sequence of CfEcR-DEF mutant L234M (P28702 299-449): as the sequence (P28702 299-449, further chain) above
Sequence of CfEcR-DEF mutant L234M (O77255 entry or part of it L517M): as the sequence (O77255 entry or part of it I334L) above, with L128I, L311M counted along it
Method: as §1, §2, §3

CfEcR-DEF mutant M125E = CfEcR-DEF mutant M125E (Choristoneura fumiferana, UniProt O77255, M408E); test: cell-based
Method: as §1, §2, §3

CfEcR-DEF mutant R95W = CfEcR-DEF mutant R95W (Choristoneura fumiferana, UniProt O77255, R378W); test: cell-based
Sequence of CfEcR-DEF mutant R95W (O77255 entry or part of it R378W): as the sequence (O77255 entry or part of it V390I/A393P/Y410E) above, with R160W, I172V, P175A, E192Y counted along it
Sequence of CfEcR-DEF mutant R95W (P28702 299-449, further chain): as the sequence (P28702 299-449, further chain) above
Method: as §1, §2, §3

CfEcR-DEF mutant A110E = CfEcR-DEF mutant A110E (Choristoneura fumiferana, UniProt O77255, A393E); test: cell-based
Sequence of CfEcR-DEF mutant A110E (P28702 299-449, stated change not applied): as the sequence (P28702 299-449, further chain) above
Sequence of CfEcR-DEF mutant A110E (O77255 entry or part of it A393E): as the sequence (O77255 entry or part of it I334L) above, with L128I, A187E counted along it
Method: as §1, §2, §3

CfEcR-DEF mutant R95M = CfEcR-DEF mutant R95M (Choristoneura fumiferana, UniProt O77255, R378M); test: cell-based
Sequence of CfEcR-DEF mutant R95M (P28702 299-449): as the sequence (P28702 299-449, further chain) above
Sequence of CfEcR-DEF mutant R95M (O77255 entry or part of it R378M): as the sequence (O77255 entry or part of it V390I/A393P/Y410E) above, with R160M, I172V, P175A, E192Y counted along it
Method: as §1, §2, §3

CfEcR-DEF mutant F109N = CfEcR-DEF mutant F109N (Choristoneura fumiferana, UniProt O77255, F392N); test: cell-based
Sequence of CfEcR-DEF mutant F109N (P28702 299-449): as the sequence (P28702 299-449, further chain) above
Sequence of CfEcR-DEF mutant F109N (O77255 entry or part of it F392N): as the sequence (O77255 entry or part of it I334L) above, with L128I, F186N counted along it
Method: as §1, §2, §3

CfEcR-DEF mutant M125W = CfEcR-DEF mutant M125W (Choristoneura fumiferana, UniProt O77255, M408W); test: GAL4-driven luciferase reporter assay in NIH3T3 cells; assay type: cell-based
Method: as §1, §2, §3

CfEcR-DEF mutant F48N = CfEcR-DEF mutant F48N (Choristoneura fumiferana, UniProt O77255, F331N); test: as above; assay type: cell-based
Method: as §1, §2, §3

[3] = molecular target: CfEcR-DEF mutant V107I/Y127E/T52V (Choristoneura fumiferana, UniProt O77255, T335V/V390I/Y410E); test: as above; assay type: cell-based
Sequence of CfEcR-DEF mutant V107I/Y127E/T52V (P28702 299-449): as the sequence (P28702 299-449, further chain) above
Sequence of CfEcR-DEF mutant V107I/Y127E/T52V (O77255 entry or part of it T335V/V390I/Y410E): as the sequence (O77255 entry or part of it V390I/A393P/Y410E) above, with T117V, P175A counted along it
Method: as §1, §2, §3

[4] = molecular target: CfEcR-DEF mutant T52V/A110P (Choristoneura fumiferana, UniProt O77255, A393P/T335V); test: as above; assay type: cell-based
Method: as §1, §2, §3

[5] = NIH3T3, 40 h, read-out: Rel Max FI

With CC(C)(O)CC[C@@H](O)[C@](C)(O)[C@H]1CC[C@@]2(O)C3=CC(=O)[C@@H]4C[C@@H](O)[C@@H](O)C[C@]4(C)[C@H]3CC[C@]12C [20E, 20-hydroxyecdysone] the EC50 ([1]; mutant N119F/V96T, read-out: EC50) was about 8 µM, the “Rel Max FI” value ([1]; mutant N119F/V96T, relative to max fold induction of GS-E ligand) was 0.46 and the “Rel Max FI” value (CfEcR-DEF mutant V96L; mutant V96L) was 0. For the same compound, the EC50 (CfEcR-DEF mutant V96L; mutant V96L, read-out: EC50) was over 33 µM, the EC50 (CfEcR-DEF mutant F109W; mutant F109W, read-out: EC50) was over 33 µM and the “Rel Max FI” value (CfEcR-DEF mutant F109W; mutant F109W, relative to max fold induction of GS-E ligand) was 0. The “Rel Max FI” value (CfEcR-DEF mutant V96W; mutant V96W) was 0, the EC50 (CfEcR-DEF mutant V96W; mutant V96W, read-out: EC50) was over 33 µM and the EC50 (CfEcR-DEF mutant L132V; mutant L132V, read-out: EC50) was over 33 µM. For the same compound, the “Rel Max FI” value (CfEcR-DEF mutant L132V; mutant L132V, relative to max fold induction of GS-E ligand) was 0, the “Rel Max FI” value (CfEcR-DEF mutant I51L; mutant I51L) was 0 and the EC50 (CfEcR-DEF mutant I51L; mutant I51L, read-out: EC50) was over 33 µM. For the same compound, the EC50 ([2]; mutant V107I/Y127E/A110P, read-out: EC50) was over 33 µM, the “Rel Max FI” value ([2]; mutant V107I/Y127E/A110P, relative to max fold induction of GS-E ligand) was 0.00 and the “Rel Max FI” value (CfEcR-DEF mutant M125R; mutant M125R) was 0.01. The EC50 (CfEcR-DEF mutant M125R; mutant M125R, read-out: EC50) was over 33 µM, the “Rel Max FI” value (CfEcR-DEF mutant W238Y; mutant W238Y) was 0.18 and the EC50 (CfEcR-DEF mutant W238Y; mutant W238Y, read-out: EC50) was over 33 µM. For the same compound, the EC50 (CfEcR-DEF mutant F48L; mutant F48L, read-out: EC50) was over 33 µM, the “Rel Max FI” value (CfEcR-DEF mutant F48L; mutant F48L, relative to max fold induction of GS-E ligand) was 0 and the “Rel Max FI” value (CfEcR-DEF mutant M125P; mutant M125P) was 1.29. The EC50 (CfEcR-DEF mutant M125P; mutant M125P, read-out: EC50) was over 33 µM, the “Rel Max FI” value (CfEcR-DEF mutant L234M; mutant L234M) was 0 and the EC50 (CfEcR-DEF mutant L234M; mutant L234M, read-out: EC50) was over 33 µM. The “Rel Max FI” value (CfEcR-DEF mutant M125E; mutant M125E) was 0, the EC50 (CfEcR-DEF mutant M125E; mutant M125E, read-out: EC50) was over 33 µM and the “Rel Max FI” value (CfEcR-DEF mutant R95W; mutant R95W) was 0. The EC50 (CfEcR-DEF mutant R95W; mutant R95W, read-out: EC50) was over 33 µM, the EC50 (CfEcR-DEF mutant A110E; mutant A110E, read-out: EC50) was over 33 µM and the “Rel Max FI” value (CfEcR-DEF mutant A110E; mutant A110E, relative to max fold induction of GS-E ligand) was 0. The “Rel Max FI” value (CfEcR-DEF mutant R95M; mutant R95M) was 0, the EC50 (CfEcR-DEF mutant R95M; mutant R95M, read-out: EC50) was over 33 µM and the “Rel Max FI” value (CfEcR-DEF mutant F109N; mutant F109N) was 0. For the same compound, the EC50 (CfEcR-DEF mutant F109N; mutant F109N, read-out: EC50) was over 33 µM, the “Rel Max FI” value (CfEcR-DEF mutant M125W; mutant M125W) was 0 and the EC50 (CfEcR-DEF mutant M125W; mutant M125W, read-out: EC50) was over 33 µM. For the same compound, the “Rel Max FI” value (CfEcR-DEF mutant F48N; mutant F48N) was 0, the EC50 (CfEcR-DEF mutant F48N; mutant F48N, read-out: EC50) was over 33 µM and the EC50 ([3]; mutant V107I/Y127E/T52V, read-out: EC50) was over 33 µM. For the same compound, the “Rel Max FI” value ([3]; mutant V107I/Y127E/T52V, relative to max fold induction of GS-E ligand) was 0.04, the EC50 ([4]; mutant T52V/A110P, read-out: EC50) was over 33 µM and the “Rel Max FI” value ([4]; mutant T52V/A110P, relative to max fold induction of GS-E ligand) was 0.
CCc1cccc(C(=O)NN(C(=O)c2cc(C)cc(C)c2)C(C)(C)C)c1C [RG-101691, 3,5-Dimethyl-benzoic acid N-tert-butyl-N′-(3-ethyl-2-methyl-benzoyl)-hydrazide] was tested, and the EC50 [1] was 3.63 µM, the Emax [1, 5] was 13% and the EC50 (CfEcR-DEF mutant V96L) was 1.68 µM. It also gave an Emax (CfEcR-DEF mutant V96L; [5]) of 62%, an EC50 (CfEcR-DEF mutant F109W) of 0.49 µM and an Emax (CfEcR-DEF mutant F109W; [5]) of 79%. The EC50 (CfEcR-DEF mutant V96W) was 3.61 µM, the Emax (CfEcR-DEF mutant V96W; [5]) was 75% and the EC50 (CfEcR-DEF mutant L132V) was 0.66 µM. It also gave an Emax (CfEcR-DEF mutant L132V; [5]) of 77%, an EC50 (CfEcR-DEF mutant I51L) of 2.28 µM and an Emax (CfEcR-DEF mutant I51L; [5]) of 88%. For the same compound, the EC50 [2] was 0.34 µM, the Emax [2, 5] was 96% and the EC50 (CfEcR-DEF mutant M125R) was about 10 µM. For the same compound, the Emax (CfEcR-DEF mutant M125R; [5]) was 1%, the EC50 (CfEcR-DEF mutant W238Y) was over 33 µM and the Emax (CfEcR-DEF mutant W238Y; [5]) was 30%. For the same compound, the EC50 (CfEcR-DEF mutant F48L) was 0.3 µM, the Emax (CfEcR-DEF mutant F48L; [5]) was 81% and the EC50 (CfEcR-DEF mutant M125P) was over 33 µM. For the same compound, the Emax (CfEcR-DEF mutant M125P; [5]) was 525%, the EC50 (CfEcR-DEF mutant L234M) was 1.79 µM and the Emax (CfEcR-DEF mutant L234M; [5]) was 77%. The EC50 (CfEcR-DEF mutant M125E) was 0.98 µM, the Emax (CfEcR-DEF mutant M125E; [5]) was 53% and the EC50 (CfEcR-DEF mutant R95W) was about 10 µM. It also gave an Emax (CfEcR-DEF mutant R95W; [5]) of 37%, an EC50 (CfEcR-DEF mutant A110E) of 0.85 µM and an Emax (CfEcR-DEF mutant A110E; [5]) of 103%. For the same compound, the EC50 (CfEcR-DEF mutant R95M) was 3.3 µM, the Emax (CfEcR-DEF mutant R95M; [5]) was 57% and the EC50 (CfEcR-DEF mutant F109N) was 3.95 µM. The Emax (CfEcR-DEF mutant F109N; [5]) was 85%, the EC50 (CfEcR-DEF mutant M125W) was 4.94 µM and the Emax (CfEcR-DEF mutant M125W; [5]) was 74%. It also gave an EC50 (CfEcR-DEF mutant F48N) of 1.73 µM, an Emax (CfEcR-DEF mutant F48N; [5]) of 88% and an EC50 [3] of 0.02 µM. It also gave an Emax [3, 5] of 88%, an EC50 [4] of 0.24 µM and an Emax [4, 5] of 66%.
